The test system of test [1] is KARN cells (Jurkat 2C4). In words: cells. It is filed as cell-based. Conditions: Homo sapiens, Jurkat. The essentials:
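Luminescence (Steady-Glo, 10 min, room temperature) measured next day in KARN Jurkat 2C4 cells given compounds at up to 40 μM final with 0.4% DMSO. Percent activation normalised to DMSO (0%) and 2 μM SAHA (100%), fitted by 4-parameter curve.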

Test [2] concerns the target T1, Recombinant human HDAC3/SMRT heterodimer (Homo sapiens, UniProt O15379).
T1 construct: FLAG (C); made in house
Description: Human HDAC enzyme inhibitor Fluor-de-Lys assay, HDAC3/SMRT. Type of test: biochemical.

The mark [3] stands for this setting: read-out: Karn EC50 (nM) 0.1% NHS, 0.1% normal human serum, luciferase induction, 100% = 2 μM SAHA.
[4] abbreviates: read-out: Karn EC50 (nM) 5% NHS, 5% normal human serum, luciferase induction, 100% = 2 μM SAHA.
[5] abbreviates: recombinant human HDAC3/SMRT, Fluor-de-Lys assay.
Setting [6] is: read-out: Karn EC50 (nM) 0.1% NHS, 0.1% normal human serum.
Setting [7] is: read-out: Karn EC50 (nM) 5% NHS, 5% normal human serum.

Read-outs that look alike come from different tables or passages of the source. Where only a bound is given, the exact number is not on record here.

T1 sequence (O15379 whole entry): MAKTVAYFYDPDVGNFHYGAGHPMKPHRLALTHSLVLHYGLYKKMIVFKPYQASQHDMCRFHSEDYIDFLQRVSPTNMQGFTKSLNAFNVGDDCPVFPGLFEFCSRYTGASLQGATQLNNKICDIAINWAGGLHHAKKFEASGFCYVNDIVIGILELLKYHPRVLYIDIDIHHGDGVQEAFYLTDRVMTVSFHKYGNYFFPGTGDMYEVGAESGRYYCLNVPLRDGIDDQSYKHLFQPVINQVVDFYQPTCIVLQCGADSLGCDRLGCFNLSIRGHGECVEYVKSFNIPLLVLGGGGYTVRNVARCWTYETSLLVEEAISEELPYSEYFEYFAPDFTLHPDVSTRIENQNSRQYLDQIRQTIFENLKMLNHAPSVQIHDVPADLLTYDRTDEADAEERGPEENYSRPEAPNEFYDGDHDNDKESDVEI
T1 sequence (Q9Y618 1-899 partner limits assumed): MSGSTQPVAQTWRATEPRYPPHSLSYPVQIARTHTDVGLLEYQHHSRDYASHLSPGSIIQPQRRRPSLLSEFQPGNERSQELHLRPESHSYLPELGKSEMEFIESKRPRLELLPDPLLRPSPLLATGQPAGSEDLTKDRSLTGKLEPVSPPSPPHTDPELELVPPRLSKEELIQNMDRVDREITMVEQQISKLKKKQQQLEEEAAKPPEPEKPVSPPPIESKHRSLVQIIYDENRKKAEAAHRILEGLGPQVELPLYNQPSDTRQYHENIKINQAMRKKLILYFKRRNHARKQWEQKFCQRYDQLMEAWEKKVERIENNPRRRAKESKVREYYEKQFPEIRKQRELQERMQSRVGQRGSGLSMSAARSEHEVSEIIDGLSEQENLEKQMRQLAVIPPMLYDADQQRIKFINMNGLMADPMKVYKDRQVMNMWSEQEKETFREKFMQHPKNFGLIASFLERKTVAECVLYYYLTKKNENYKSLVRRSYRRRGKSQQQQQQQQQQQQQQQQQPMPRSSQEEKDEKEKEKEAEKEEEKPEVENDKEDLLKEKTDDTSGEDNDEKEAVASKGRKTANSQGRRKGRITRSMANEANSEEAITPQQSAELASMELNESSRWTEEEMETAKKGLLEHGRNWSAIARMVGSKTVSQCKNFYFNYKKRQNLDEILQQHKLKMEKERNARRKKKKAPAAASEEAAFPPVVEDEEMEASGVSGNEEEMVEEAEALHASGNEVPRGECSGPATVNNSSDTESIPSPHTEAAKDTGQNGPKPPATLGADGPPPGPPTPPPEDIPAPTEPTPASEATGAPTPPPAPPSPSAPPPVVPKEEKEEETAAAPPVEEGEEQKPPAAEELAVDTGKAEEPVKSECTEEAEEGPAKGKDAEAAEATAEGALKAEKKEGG

A word on the EC50: it is the concentration that produces a half-maximal response. In general, IC50 refers to the concentration that gives 50% inhibition. As to `CCC(=O)CCCCC[C@H](NC(=O)C1(N)CC2(CN(C)C2)C1)c1ncc(-c2cc3ccccc3nc2OC)[nH]1` [Compound 276], the EC50 in test [1] (setting [3]) came to 1560 nM; in test [1] (setting [4]) it was 4780 nM. For the same molecule, in test [2] (setting [5]), the IC50 came to 1.57 nM.

On to `CCC(=O)CCCCCC(NC(=O)C1CC12CCN(CC)CC2)c1nc(-c2ccc(F)cc2)[nH]c1-c1ccnn1C` (centres unmarked) [Compound 253], for which the EC50 in test [1] (setting [3]) turned out to be 1870 nM; in test [1] (setting [4]), 2340 nM. The IC50 in test [2] (setting [5]) worked out at 16.7 nM.

Consider `CN1CCC2(CC1)C[C@@H]2C(=O)N[C@@H](CCCCCC(=O)CC1CC1)c1ncc(-c2ccc(F)cc2)[nH]1` [Compound 84], for which the EC50 in test [1] (setting [6]) is 632 nM; in test [1] (setting [7]), 1180 nM. Besides, in test [2], the IC50 amounted to 16.3 nM.

For the molecule `CCC(=O)CCCCC[C@H](NC(=O)[C@H]1CC12CCN(C)CC2)c1ncc(-c2ccc3cc(C#N)ccc3c2)[nH]1` [Compound 90], the EC50 in test [1] (setting [6]) came to 52 nM; in test [1] (setting [7]), 33 nM. Besides, in test [2], the IC50 was 0.38 nM.

For the molecule `CCC(=O)CCCCC[C@H](NC(=O)C1CC12CCNCC2)c1nnc(-c2cc3ccccc3nc2OC)o1` (some centres unmarked) [Compound 303], the EC50 in test [1] (setting [3]) was 2430 nM; in test [1] (setting [4]), 4260 nM. The IC50 in test [2] (setting [5]) worked out at 10.5 nM.

In the case of `CCC(=O)CCCCC[C@H](NC(=O)[C@H]1CC12CCN(CC)CC2)c1ncc(-c2ccc(-c3ncco3)cc2)o1` [Compound 94], the EC50 in test [1] (setting [6]) was determined as 502 nM; in test [1] (setting [7]) it was 549 nM. In test [2], the IC50 came out at 4.01 nM.

As to `CCC(=O)CCCCCC(NC(=O)C1CCC2(CC1)OC(=O)c1cnccc12)c1nnc(-c2cc3ccccc3nc2OC)o1` (centres unmarked) [Compound 364], the EC50 in test [1] (setting [3]) amounted to 1770 nM; in test [1] (setting [4]) it was 4310 nM. In addition, the IC50 in test [2] (setting [5]) stood at 21.8 nM.

For `CCC(=O)CCCCCC(NC(=O)C1CCC2(CC1)OC(=O)c1ccncc12)c1nnc(-c2cc3ccccc3nc2OC)o1` (centres unmarked) [Compound 363], the EC50 in test [1] (setting [3]) was found to be 2080 nM; in test [1] (setting [4]), 4810 nM. In test [2] (setting [5]), the IC50 came out at 33.5 nM.

For `CCC(=O)CCCCC[C@H](NC(=O)C1=NOC2(CCN(C)CC2)C1)c1ncc(-c2cc3cccnc3cc2OC)o1` [Compound 223], the EC50 was 272 nM in test [1] (setting [3]) and 559 nM in test [1] (setting [4]). The IC50 in test [2] (setting [5]) stood at 2.06 nM.

As to `CCC(=O)CCCCC[C@H](NC(=O)CC1CC2(C1)CN(C(C)C)C2)c1ncc(-c2cc3ccccc3nc2OC)[nH]1` [Compound 273], the figures for the EC50 in test [1] (setting [3]) and in test [1] (setting [4]) were 111 nM and 438 nM, respectively. Moreover, in test [2] (setting [5]), the IC50 was less than 1.5 nM.

Consider `CCC(=O)CCCCC[C@H](NC(=O)C1=NOC2(CCN(C)CC2)C1)c1ncc(-c2cc3ccc(C)nc3cc2F)[nH]1` [Compound 232], for which the EC50 in test [1] (setting [3]) is 144 nM; in test [1] (setting [4]), 248 nM. The IC50 in test [2] (setting [5]) was determined as 4.47 nM.

Take `CCC(=O)CCCCC[C@H](NC(=O)[C@H]1CC12CCN(C)CC2)c1ncc(-c2cnc3c(c2)ncn3C)[nH]1` [Compound 256]: the EC50 in test [1] (setting [3]) is 23700 nM; in test [1] (setting [4]), more than 40000 nM. The IC50 in test [2] (setting [5]) was found to be 57.9 nM.

For the molecule `CCC(=O)CCCCC[C@H](NC(=O)C1=NOC2(CCN(CC)CC2)C1)c1ncc(-c2cc3ccc(=O)n(C)c3cc2OC)o1` [Compound 235], the values for the EC50 in test [1] (setting [3]) and in test [1] (setting [4]) were 249 nM and 411 nM, respectively. Also, the IC50 in test [2] (setting [5]) was 2.19 nM.

Turning to `CCC(=O)CCCCC[C@H](NC(=O)CC1CC2(CNC2)C1)c1ncc(-c2ccccc2)[nH]1` [Compound 297], the EC50 in test [1] (setting [3]) is 5840 nM; in test [1] (setting [4]), 15800 nM. Also, in test [2] (setting [5]), the IC50 was found to be 9.69 nM.

As for `CCC(=O)CCCCC[C@H](NC(=O)[C@H]1CC12CCN(C)CC2)c1ncc(-c2cnc(OC)nc2)[nH]1` [Compound 255], the values for the 50% effective concentration (EC50) in test [1] (setting [3]) and in test [1] (setting [4]) were 13300 nM and 14800 nM, respectively. In addition, in test [2] (setting [5]), the IC50 was determined as 81.9 nM.

Regarding `CCC(=O)CCCCC[C@H](NC(=O)CC1CC2(C1)CN(C)C2)c1nnc(-c2cc3ccccc3nc2OC)o1` [Compound 308], the values for the EC50 in test [1] (setting [3]) and in test [1] (setting [4]) were 2690 nM and 3700 nM, respectively. Also, in test [2] (setting [5]), the IC50 turned out to be 27.4 nM.

Regarding `CCC(=O)CCCCC[C@H](NC(=O)[C@H]1CC12CCN(C)CC2)c1ncc(-c2ccc(F)cc2F)[nH]1` [Compound 289], the EC50 in test [1] (setting [3]) came to 1060 nM; in test [1] (setting [4]), 1090 nM. For the same molecule, the IC50 in test [2] (setting [5]) amounted to 21.7 nM.

Turning to `CCC(=O)CCCCC[C@H](NC(=O)[C@H]1CC12CCN(C)CC2)c1ncc(-c2ccc3nc(C(F)(F)F)ccc3c2)o1` [Compound 78, (1S)-6-methyl-N-[(1S)-7-oxo-1-{5-[2-(trifluoromethyl)quinolin-6-yl]-1,3-oxazol-2-yl}nonyl]-6-azaspiro[2.5]octane-1-carboxamide], the results for the EC50 in test [1] (setting [6]) and in test [1] (setting [7]) were 911 nM and 1440 nM, respectively. Also, the IC50 in test [2] came out at 13.8 nM.

In the case of `CCC(=O)CCCCC[C@H](NC(=O)[C@H]1CC12CCN(C)CC2)c1[nH]c(-c2ccc(F)cc2)nc1Cl` [Compound 240], the EC50 is 247 nM in test [1] (setting [3]) and 346 nM in test [1] (setting [4]). For the same molecule, the IC50 in test [2] (setting [5]) is 2.95 nM.

On to `CCC(=O)CCCCC[C@H](NC(=O)C1CC12CCN(CC)CC2)c1nc(-c2ccc(F)cc2)[nH]c1-c1cnc(OC)nc1` (some centres unmarked) [Compound 247], for which the EC50 in test [1] (setting [3]) worked out at 9640 nM; in test [1] (setting [4]), 10800 nM. In addition, the IC50 in test [2] (setting [5]) turned out to be 35.9 nM.

Consider `CCC(=O)CCCCC[C@H](NC(=O)C1=NOC2(CCN(CC3CC3)CC2)C1)c1ncc(-c2cc3ccc(C)nc3cc2F)[nH]1` [Compound 234], for which the EC50 came out at 160 nM in test [1] (setting [3]) and 262 nM in test [1] (setting [4]). Further, the IC50 in test [2] (setting [5]) was 2.99 nM.

For the molecule `CCC(=O)CCCCC[C@H](NC(=O)C1CCC2(CC1)CN(C(C)C)C2)c1ncc(-c2cc3ccccc3nc2OC)[nH]1` [Compound 272], the values for the EC50 in test [1] (setting [3]) and in test [1] (setting [4]) were 163 nM and 721 nM, respectively. In addition, in test [2] (setting [5]), the half-maximal inhibitory concentration (IC50) is less than 1.5 nM.

`CCC(=O)CCCCC[C@H](NC(=O)CC1CC2(CNC2)C1)c1nnc(-c2cc3ccccc3nc2OC)o1` [Compound 301]: the concentration giving a half-maximal response (EC50) in test [1] (setting [3]) was 24200 nM. For the same molecule, the IC50 in test [2] (setting [5]) came to 15.8 nM.

As to `CCC(=O)CCCCC[C@H](NC(=O)[C@H]1CC12CCN(C(C)C)CC2)c1ncc(-c2ccc3nc(C)ccc3c2)[nH]1` [Compound 83], the EC50 is 64 nM in test [1] (setting [6]) and 60 nM in test [1] (setting [7]). The IC50 in test [2] was less than 1.5 nM.

As to `CCC(=O)CCCCC[C@H](NC(=O)[C@H]1CC12CCN(CC)CC2)c1ncc(-c2cnc3cc(C(F)(F)F)ccc3c2)[nH]1` [Compound 341], the EC50 amounted to 44 nM in test [1] (setting [3]) and 70 nM in test [1] (setting [4]). Besides, in test [2] (setting [5]), the IC50 is 0.43 nM.

As to `CCC(=O)CCCCC[C@H](NC(=O)[C@H]1CC12CCN(CC)CC2)c1ncc(-c2ccc(-c3nccs3)cc2)o1` [Compound 93], the EC50 was found to be 688 nM in test [1] (setting [6]) and 736 nM in test [1] (setting [7]). For the same molecule, in test [2], the IC50 was determined as 5.76 nM.

As to `CCC(=O)CCCCC[C@H](NC(=O)[C@H]1CC12CCN(CC1CC1)CC2)c1ncc(-c2cc3ccn(C)c(=O)c3cc2OC)o1` [Compound 229], the EC50 in test [1] (setting [3]) turned out to be 31 nM; in test [1] (setting [4]) it was 29 nM. In test [2] (setting [5]), the IC50 came to 0.21 nM.

As for `CCC(=O)CCCCC[C@H](NC(=O)C1CCC2(CC1)CNC2)c1nnc(-c2cc3ccccc3nc2OC)o1` [Compound 299], the EC50 in test [1] (setting [3]) came to 7000 nM; in test [1] (setting [4]), 9270 nM. In addition, the IC50 in test [2] (setting [5]) was 6.56 nM.

With `CCC(=O)CCCCC[C@H](NC(=O)[C@H]1CC12CCN(C)CC2)c1ncc(-c2ccc3c(c2)c2ccccc2n3C)[nH]1` [Compound 265], the values for the EC50 in test [1] (setting [3]) and in test [1] (setting [4]) were 142 nM and 370 nM, respectively. In addition, the IC50 in test [2] (setting [5]) was found to be 3.86 nM.
